Molecular target: DNA gyrase subunit A/B (Staphylococcus aureus, UniProt P0A0K8+P20831)
Assay: Inhibition of Staphylococcus aureus DNA gyrase supercoiling activity

Sequence of DNA gyrase subunit A/B (P20831 whole entry): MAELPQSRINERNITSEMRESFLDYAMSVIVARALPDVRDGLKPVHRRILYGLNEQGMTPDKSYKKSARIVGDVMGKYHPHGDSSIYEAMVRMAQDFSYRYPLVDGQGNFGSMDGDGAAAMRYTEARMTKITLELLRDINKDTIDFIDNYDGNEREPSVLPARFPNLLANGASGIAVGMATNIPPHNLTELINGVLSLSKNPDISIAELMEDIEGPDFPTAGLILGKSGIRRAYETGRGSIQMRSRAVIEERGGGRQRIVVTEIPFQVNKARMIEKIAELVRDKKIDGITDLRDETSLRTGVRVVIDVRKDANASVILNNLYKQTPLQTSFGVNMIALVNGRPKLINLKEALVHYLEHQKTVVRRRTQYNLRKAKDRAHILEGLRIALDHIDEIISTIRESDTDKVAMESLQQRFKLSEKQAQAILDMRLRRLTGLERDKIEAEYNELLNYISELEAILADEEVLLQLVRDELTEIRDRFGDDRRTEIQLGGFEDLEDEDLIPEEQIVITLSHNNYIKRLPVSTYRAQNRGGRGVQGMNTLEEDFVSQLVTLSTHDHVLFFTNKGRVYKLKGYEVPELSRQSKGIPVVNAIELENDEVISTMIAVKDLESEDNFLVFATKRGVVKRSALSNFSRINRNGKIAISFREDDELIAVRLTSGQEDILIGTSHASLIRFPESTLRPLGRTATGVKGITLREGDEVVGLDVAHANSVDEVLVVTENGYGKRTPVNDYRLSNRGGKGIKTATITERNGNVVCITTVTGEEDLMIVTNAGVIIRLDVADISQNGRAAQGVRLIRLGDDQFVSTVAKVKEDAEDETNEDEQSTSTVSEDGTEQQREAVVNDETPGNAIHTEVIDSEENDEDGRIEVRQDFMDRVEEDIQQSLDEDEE
Sequence of DNA gyrase subunit A/B (P0A0K8 whole entry): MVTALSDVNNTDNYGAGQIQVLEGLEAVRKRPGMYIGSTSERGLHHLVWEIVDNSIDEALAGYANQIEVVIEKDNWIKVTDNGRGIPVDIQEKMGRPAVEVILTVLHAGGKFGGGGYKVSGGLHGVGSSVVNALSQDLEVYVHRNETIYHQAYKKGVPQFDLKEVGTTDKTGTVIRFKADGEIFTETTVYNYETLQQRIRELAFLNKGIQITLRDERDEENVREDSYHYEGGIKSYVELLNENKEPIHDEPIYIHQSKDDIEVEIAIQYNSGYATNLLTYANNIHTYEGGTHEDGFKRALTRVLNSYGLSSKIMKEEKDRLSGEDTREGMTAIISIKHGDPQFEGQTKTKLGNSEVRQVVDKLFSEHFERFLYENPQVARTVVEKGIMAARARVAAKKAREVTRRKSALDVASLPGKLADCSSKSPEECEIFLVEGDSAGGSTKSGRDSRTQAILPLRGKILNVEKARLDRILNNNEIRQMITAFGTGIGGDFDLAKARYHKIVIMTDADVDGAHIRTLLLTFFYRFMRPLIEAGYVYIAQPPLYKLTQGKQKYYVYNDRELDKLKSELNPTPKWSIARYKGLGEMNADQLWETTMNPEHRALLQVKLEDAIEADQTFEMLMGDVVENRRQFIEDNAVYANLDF

Which IC50 does the source give for `CCC(=O)O/N=C(/C)N1N=C(C)CC1c1ccccc1OCc1ccc(F)cc1` (stereo not drawn) here?
The IC50 was > 314000 nM.

Which IC50 does the source give for `CC1=NN(/C(C)=N\OC(=O)c2cccnc2)C(c2ccc(OCc3ccc(F)cc3)cc2)C1` (stereo not drawn) here?
The IC50 was 7830 nM.

How did the IC50 turn out when `COC1CC(c2ccccc2)=NN1/C(C)=N\OC(=O)c1ccco1` (stereo not drawn) was run?
Its IC50 is 12200 nM.

`COC1CC(c2ccccc2)=NN1/C(C)=N\OC(=O)c1ccc(C(F)(F)F)cc1` (stereo not drawn) was tested. Which IC50 did it give?
The IC50 was 308 nM.

How did the IC50 turn out when `C/C(=N/OC(=O)c1ccco1)N1N=C(c2ccc(Cl)cc2Cl)CC1c1ccccc1F` (stereo not drawn) was run?
Its IC50 is 271 nM.

With `C=CC(=O)O/N=C(/C)N1N=C(c2ccc(Cl)cc2Cl)CC1c1ccccc1F` (stereo not drawn) as the compound, how does the IC50 read?
Its IC50 is 1180 nM.

With `C/C(=N/OC(=O)c1ccco1)N1N=C(c2ccc(Cl)cc2Cl)CC1c1ccc(C(F)(F)F)cc1` (stereo not drawn) as the compound, how does the IC50 read?
Its IC50 is 979 nM.

`CC1=NN2C(C1)c1ccccc1CC2(C)C` (stereo not drawn) was tested. Which IC50 did it give?
The IC50 was 1160 nM.

Source: BindingDB's records for doi:10.1016/j.bmc.2008.01.035 (Anhui University of Technology, 2008)
